Source: patent US20100168167A1, “Piperidinones Useful in the Treatment of Inflammation” (priority 2007, published 2010)

Target: T1, PDE4 enzyme (U937 lysate or recombinant hPDE4)
T1 construct: cDNA containing PDE4D1 was cloned into a baculovirus vector, insect cells (SF9) were then infected and cells cultured to express the PDE4 protein
Assay: In vitro inhibition of PDE4, Method A ([3H]cAMP SPA enzyme assay)
Type: biochemical, human
Conditions: Biological Example 1, Method A
Procedure: PDE4 U937 cytoplasmic extracts were prepared by a modified procedure of the assay described in MacKenzie, S. J. and Houslay, M. D., “Action of rolipram on specific PDE4 cAMP phosphodiesterase isoforms and on the phosphorylation of cAMP-response-element-binding protein (CREB) and p38 mitogen-activated protein (MAP) kinase in U937 monocytic cells”, Biochem J. (2000), 347(Pt 2):571-8, by lysis of U937 cells (ATCC: Catalogue No. CRL-159) in M-PER Lysis buffer (Pierce) containing 10% protease inhibitor cocktail (Sigma). The cell lysates were then centrifuged at 30,000 rpm for 15 minutes at 4° C. The supernatants were aliquoted and stored at −80° C.
An alternative source of PDE4 enzymes was from recombinant human PDE4 obtained from baculovirus-SF9 cells expression system. cDNA containing PDE4D1 was cloned into a baculovirus vector, insect cells (SF9) were then infected and cells cultured to express the PDE4 protein. The cells were lysed and used directly in assay or partially purified using standard procedures. The process can be used for other PDE4 and PDE enzymes.
Compounds of the invention were evaluated for inhibitory activity against PDE4 enzymes by the following assay Method A or B.
PDE4 assay based on modified procedure of Phosphodiesterase [^3H]cAMP SPA Enzyme Assay (Amersham Biosciences, code TRKQ 7090). In this assay, PDE4 enzymes converts [^3H]cAMP to [^3H]5′-AMP. The assay is quenched by the addition of SPA yttrium silicate beads which preferentially bind linear nucleotides over cyclic nucleotides in the presence of zinc sulphate.
Reactions were performed in duplicate by the addition of 10 μl PDE4 enzyme (U937 lysate or recombinant hPDE4) to 20 μL of assay mix and 20 μL of test compounds in Isoplates (Wallac) for 30 minutes, at 37° C. The final assay mixture contained: 50 mM Tris (pH 7.5), 8.3 mM MgCl2, 1.7 mM EGTA and [^3H]cAMP (0.025 μCi) (Amersham). Assay was terminated by addition 25 μL SPA beads. The plate was sealed, shaken for 1 minute and then allowed to settle 30 minutes and the cpm determined using a Wallac Micobeta.

Row | SMILES | IC50 [µM]
1 | COc1ccc2oc(C[C@H]3C[C@@H](c4ccc(OC)c(OC5CCCC5)c4)CNC3=O)cc2c1 [(3R,5S)-5-(3-cyclopentyloxy-4-methoxyphenyl)-3-(5-methoxy-2-benzofurylmethyl)piperidin-2-one] | 0.373
2 | COc1ccc([C@H]2CNC(=O)C(CCNc3ccccc3)C2)cc1OC1CCCC1 (stereo partly drawn) [(5S)-5-(3-(cyclopentyloxy)-4-methoxyphenyl)-3-(2-(phenylamino)ethyl)piperidin-2-one] | 0.215
3 | COc1ccc([C@H]2CNC(=O)C(CC(=O)Nc3cccnc3)C2)cc1OC1CCCC1 (stereo partly drawn) [2-((5S)-5-(3-(cyclopentyloxy)-4-methoxyphenyl)-2-oxopiperidin-3-yl)-N-(pyridin-3-yl)acetamide] | 0.456
4 | COc1ccc([C@H]2CNC(=O)C(CC(O)CO)C2)cc1OC1CCCC1 (stereo partly drawn) [(5S)-5-(3-(cyclopentyloxy)-4-methoxyphenyl)-3-(2,3-dihydroxypropyl)piperidin-2-one] | 0.446
5 | COc1ccc([C@H]2CNC(=O)[C@@H](CC3CCOC3)C2)cc1OC1CCCC1 (stereo partly drawn) [(3R,5S)-5-(3-(cyclopentyloxy)-4-methoxyphenyl)-3-((tetrahydrofuran-3-yl)methyl)piperidin-2-one] | 1.49
6 | C=CCC1C[C@@H](c2ccc(OC)c(OC3CCCC3)c2)CNC1=O (stereo partly drawn) [(5S)-3-allyl-5-(3-(cyclopentyloxy)-4-methoxyphenyl)piperidin-2-one] | 0.29
7 | COc1ccc([C@H]2CNC(=O)[C@@H](Cc3nc4cc([N+](=O)[O-])ccc4o3)C2)cc1OC1CCCC1 [(3R,5S)-5-(3-cyclopentyloxy-4-methoxyphenyl)-3-(5-nitro-2-benzoxazolylmethyl)piperidin-2-one] | 0.653
8 | COc1ccc([C@H]2CNC(=O)C(CC(=O)O)C2)cc1OC1CCCC1 (stereo partly drawn) [2-((5S)-5-(3-(cyclopentyloxy)-4-methoxyphenyl)-2-oxopiperidin-3-yl)acetic acid] | 1.19
9 | COc1ccc([C@H]2CNC(=O)[C@H](Cc3cccnc3)C2)cc1OC1CCCC1 [(3S,5S)-5-(3-(cyclopentyloxy)-4-methoxyphenyl)-3-(3-pyridinylmethyl)piperidin-2-one] | 0.489

The remaining lines, values ahead:

Row | IC50 [µM] | SMILES
10 | 0.389 | COc1ccc([C@H]2CNC(=O)/C(=C/c3cccc(C)c3)C2)cc1OC1CCCC1 [(S,E)-5-(3-(cyclopentyloxy)-4-methoxyphenyl)-3-(3-methylbenzylidene)piperidin-2-one]
11 | 0.187 | COc1ccc([C@@H]2CCC(=O)N(C(=O)c3ccccc3)C2)cc1OC1CCCC1 [(S)-1-benzoyl-5-(3-(cyclopentyloxy)-4-methoxyphenyl)piperidin-2-one]
12 | 0.43 | COc1ccc([C@@H]2CCC(=O)N(Cc3ccccc3)C2)cc1OC1CCCC1 [(S)-1-benzyl-5-(3-(cyclopentyloxy)-4-methoxyphenyl)piperidin-2-one]
13 | 0.146 | COc1ccc([C@@H]2CCC(=O)NC2)cc1-c1ccccc1 [(S)-5-(6-methoxybiphenyl-3-yl)piperidin-2-one]
14 | 0.651 | C=CCC1(CC=C)C[C@@H](c2ccc(OC)c(OC3CCCC3)c2)CNC1=O [(S)-3,3-diallyl-5-(3-(cyclopentyloxy)-4-methoxyphenyl)piperidin-2-one]
